{"source": "patent US9840506B2", "about": "“Crystal of doripenem, and preparation method therefor” (JW PHARMACEUTICAL CORPORATION, priority 2014, dated 2017)", "format_in_all_cases": "physicochemical", "key": {"[1]": {"experiment": "TGA loss", "experimental": "Based on the results of TGA, about 4.8% loss occurred in the Type IV doripenem of Comparative Example 9 (FIG. 8) and about 0.46% loss occurred in the Type VI doripenem anhydride crystal of Example 3 according to the present invention (FIG. 7). This means that the novel doripenem crystal, prepared through the method of the present invention, is an anhydride. Furthermore, the water content of the doripenem anhydride crystal according to the present invention was measured and found to be less than about 2%."}, "[2]": {"experiment": "Solubility of doripenem crystal in water", "experimental": "The solubility of the Type VI doripenem anhydride crystal of Example 3 according to the present invention was measured and compared with that of the Type IV doripenem of Comparative Example 9.\n50 mg of each of the Type VI doripenem anhydride crystal of Example 3 and the Type IV doripenem of Comparative Example 9 was added with water until the doripenem was completely dissolved, and the solubility thereof was measured. Meanwhile, 10 mL of water was added with the Type VI doripenem anhydride crystal of Example 3 and the Type IV doripenem of Comparative Example 9 until the doripenem was completely dissolved, and the solubility thereof was measured."}, "[3]": {"experiment": "Measurement of water content", "experimental": "The doripenem anhydride crystals of Examples 3 and 7 according to the present invention and the Type IV doripenem hydrate of Comparative Example 9 were measured for water content."}, "[4]": {"experiment": "Stability: purity after standing at 60° C. for 3 weeks", "experimental": "In addition, the Type VI doripenem anhydride crystal according to the present invention and the Type IV doripenem were allowed to stand at 60° C. for 3 weeks, and the purity thereof was measured to evaluate the stability."}, "[5]": {"experiment": "DSC, decomposition temperature / stability at high temperature", "experimental": "When the Type VI doripenem anhydride crystal of Example 3 according to the present invention and the conventional Type IV doripenem were analyzed through differential scanning calorimetry (DSC), the decomposition temperature of the Type VI doripenem anhydride crystal was higher than that of the Type IV doripenem (FIG. 6).\nIn addition, the decomposition temperature of the Type VII doripenem anhydride crystal of Example 7 according to the present invention was higher than that of the Type IV doripenem hydrate (FIG. 11)."}, "[6]": {"experiment": "Stability: max. amount of impurities after standing at 60±5° C. for 3 weeks", "experimental": "In addition, the Type VII doripenem anhydride crystal of Example 7 according to the present invention and the Type IV doripenem of Comparative Example 9 were allowed to stand at 60±5° C. for 3 weeks, and the purity thereof was measured to evaluate the stability."}, "[7]": {"conditions": "2 weeks, listed as Comp. Example 9"}, "[8]": {"conditions": "3 weeks, listed as Comp. Example 9"}}, "note": "Where two headings read alike, the source gives them in different places.", "data": [{"smiles": "C[C@@H](O)[C@H]1C(=O)N2C(C(=O)O)=C(S[C@@H]3CN[C@H](CNS(N)(=O)=O)C3)[C@H](C)[C@H]12", "note": "[Example 3, doripenem]", "values": [{"measurement": "loss in TGA", "setting": "[1]", "value": "about 0.46%"}, {"measurement": "solubility", "setting": "[2]; 22 °C, thermodynamic from solid, at 20 to 25° C., read-out: solubility", "value": "55 to 65", "unit": "mg/mL"}, {"measurement": "Water content", "setting": "[3]; listed as Type VI doripenem anhydride crystal", "value": "less than 2%"}, {"measurement": "Purity (%)", "setting": "[4]; 1 week", "value": 99.4, "unit": "%"}, {"measurement": "Purity (%)", "setting": "[4]; 2 weeks", "value": 98.8, "unit": "%"}, {"measurement": "Purity (%)", "setting": "[4]; 3 weeks", "value": 98.7, "unit": "%"}, {"measurement": "decrease of purity over time", "setting": "[4]; 3 weeks", "value": "less than 1%"}, {"measurement": "Purity (%)", "setting": "[4]; Initial", "value": 99.6, "unit": "%"}, {"measurement": "stability at high temperature (DSC decomposition temperature) compared to Type IV doripenem hydrate", "setting": "[5]", "value": "superior stability at high temperature"}]}, {"smiles": "C[C@@H](O)[C@H]1C(=O)N2C(C(=O)O)=C(S[C@@H]3CN[C@H](CNS(N)(=O)=O)C3)[C@H](C)[C@H]12", "note": "[Comparative Example 9, doripenem]", "values": [{"measurement": "loss in TGA", "setting": "[1]", "value": "about 4.8%"}, {"measurement": "solubility", "setting": "[2]; at 22° C.", "value": 20, "unit": "mg/mL"}, {"measurement": "Purity (%)", "setting": "[4]; 1 week, listed as Comp. Example 9", "value": 99.0, "unit": "%"}, {"measurement": "Purity (%)", "setting": "[4]; [7]", "value": 98.2, "unit": "%"}, {"measurement": "Purity (%)", "setting": "[4]; [8]", "value": 97.3, "unit": "%"}, {"measurement": "decrease of purity over time", "setting": "[4]; 3 weeks, listed as Type IV doripenem", "value": 2.56, "unit": "%"}, {"measurement": "Purity (%)", "setting": "[4]; Initial, listed as Comp. Example 9", "value": 99.8, "unit": "%"}, {"measurement": "Max. Amount of impurities (%)", "setting": "[6]; 1 week", "value": 0.08, "unit": "%"}, {"measurement": "Max. Amount of impurities (%)", "setting": "[6]; [7]", "value": 0.23, "unit": "%"}, {"measurement": "increase of maximum amount of impurities over time", "setting": "[6]; 3 weeks", "value": 0.22, "unit": "%"}, {"measurement": "Max. Amount of impurities (%)", "setting": "[6]; [8]", "value": 0.28, "unit": "%"}, {"measurement": "Max. Amount of impurities (%)", "setting": "[6]; Initial", "value": 0.06, "unit": "%"}]}, {"smiles": "C[C@@H](O)[C@H]1C(=O)N2C(C(=O)O)=C(S[C@@H]3CN[C@H](CNS(N)(=O)=O)C3)[C@H](C)[C@H]12", "note": "[Example 7, doripenem]", "values": [{"measurement": "solubility", "setting": "[2]; 22 °C, thermodynamic from solid, measured in the same manner as for Example 3, read-out: solubility", "value": "30 to 35", "unit": "mg/mL"}, {"measurement": "Water content", "setting": "[3]; listed as Type VII doripenem anhydride crystal", "value": "less than 2%"}, {"measurement": "stability at high temperature (DSC decomposition temperature) compared to Type IV doripenem hydrate", "setting": "[5]", "value": "superior stability at high temperature"}, {"measurement": "Max. Amount of impurities (%)", "setting": "[6]; 1 week", "value": 0.08, "unit": "%"}, {"measurement": "Max. Amount of impurities (%)", "setting": "[6]; 2 weeks", "value": 0.08, "unit": "%"}, {"measurement": "Max. Amount of impurities (%)", "setting": "[6]; 3 weeks", "value": 0.08, "unit": "%"}, {"measurement": "increase of maximum amount of impurities over time", "setting": "[6]; 3 weeks", "value": 0.02, "unit": "%"}, {"measurement": "Max. Amount of impurities (%)", "setting": "[6]; Initial", "value": 0.06, "unit": "%"}]}]}
